Data from patent US20080194616A1, “PYRIDOPYRIMIDINONE COMPOUNDS USEFUL IN TREATING SODIUM CHANNEL-MEDIATED DISEASES OR CONDITIONS” (Xenon Pharmaceuticals Inc., priority 2007, published 2008).
Where a name gives a salt, the structure may show the parent alone.

Test system: sodium channel
Assay: Guanidine Influx Assay (In Vitro Assay)
Assay type: cell-based, human or rat
Details: known cell line that expresses a sodium channel; read-out: IC50 Activity Level
Description: This example describes an in vitro assay for testing and profiling test agents against human or rat sodium channels stably expressed in cells of either an endogenous or recombinant origin. The assay is also useful for determining the IC-50 of a sodium channel blocking compound. The assay is based on the guanidine flux assay described by Reddy, N. L., et al., J. Med. Chem. (1998), 41(17):3298-302.
The guanidine influx assay is a radiotracer flux assay used to determine ion flux activity of sodium channels in a high-throughput microplate-based format. The assay uses ^14C-guanidine hydrochloride in combination with various known sodium channel modulators, to assay the potency of test agents. Potency is determined by an IC-50 calculation. Selectivity is determined by comparing potency of the compound for the channel of interest to its potency against other sodium channels (also called ‘selectivity profiling’).
Each of the test agents is assayed against cells that express the channels of interest. Voltage gated sodium channels are either TTX sensitive or insensitive. This property is useful when evaluating the activities of a channel of interest when it resides in a mixed population with other sodium channels. The following Table 1 summarizes cell lines useful in screening for a certain channel activity in the presence or absence of TTX.
Cells expressing the channel of interest are grown according to the supplier or in the case of a recombinant cell in the presence of selective growth media such as G418 (Gibco/Invitrogen). The cells are disassociated from the culture dishes with an enzymatic solution (1×) Trypsin/EDTA (Gibco/Invitrogen) and analyzed for density and viability using haemocytometer (Neubauer). Disassociated cells are washed and resuspended in their culture media then plated into Scintiplates (Beckman Coulter Inc.) (approximately 100,000 cells/well) and incubated at 37° C./5% CO2. for 20-24 hours. After an extensive wash with Low sodium HEPES-buffered saline solution (LNHBSS) (150 mM Choline Chloride, […] (Sigma), 1 mM Calcium Chloride, 5 mM Potassium Chloride, 1 mM Magnesium Chloride, 10 mM Glucose) agents diluted with LNHBSS are added to each well. (Varying concentrations of test agent may be used). The activation/radiolabel mixture contains aconitine (Sigma), and ^14C-guanidine hydrochloride (ARC).
After loading the cells with test agent and activation/radiolabel mixture, the Scintiplates are incubated at ambient temperature. Following the incubation, the Scintplates are extensively washed with LNHBSS supplemented with guanidine (Sigma). The Scintiplates are dried and then counted using a Wallac MicroBeta TriLux (Perkin-Elmer Life Sciences). The ability of the test agent to block sodium channel activity is determined by comparing the amount of ^14C-guanidine present inside the cells expressing the different sodium channels.
IC-50 value of a test agent for a specific sodium channel may be determined using the above general method. IC-50 may be determined using a 3,8,10,12 or 16 point curve in duplicate or triplicate with a starting concentration of 1, 5 or 10 μM diluted serially with a final concentration reaching the sub-nanomolar, nanomolar and low micromolar ranges. Typically the mid-point concentration of test agent is set at 1 μM, and sequential concentrations of half dilutions greater or smaller are applied (e.g. 0.5 μM; […] and 0.25 μM; 10 μM and 0.125 μM; 20 μM etc.). The IC-50 curve is calculated using the 4 Parameter Logistic Model or Sigmoidal Dose-Response Model formula (fit=(A+((B−A)/(1+((C/x)̂D)))).

Compound	IC50 [µM]
CCCCc1nc2ccccn2c(=O)c1-c1ccc(OC)cc1 [Example 1, 2-butyl-3-(4-methoxyphenyl)-4H-pyrido[1,2-a]pyrimidin-4-one]	≥ 10
CCCCc1nc2ccccn2c(=O)c1-c1ccc(Cl)cc1 [Example 1.8, 2-butyl-3-(4-chlorophenyl)-4H-pyrido[1,2-a]pyrimidin-4-one]	≥ 10
CCCCc1nc2cc(C(F)(F)F)ccn2c(=O)c1-c1ccc(Cl)cc1 [Example 1.21, 2-butyl-3-(4-chlorophenyl)-8-(trifluoromethyl)-4H-pyrido[1,2-a]pyrimidin-4-one]	≥ 10
CCCOc1nc2ccccn2c(=O)c1-c1ccc(Cl)cc1 [Example 1.25, 2-propoxy-3-(4-chlorophenyl)-4H-pyrido[1,2-a]pyrimidin-4-one]	1 to 10
CCCCc1nc2ccccn2c(=O)c1-c1ccc2c(c1)CCN2 [Example 2, 2-butyl-3-(indolin-5-yl)-4H-pyrido[1,2-a]pyrimidin-4-one hydrochloride]	≥ 10
CCc1nc2ccccn2c(=O)c1-c1ccc(N[C@@H]2CCN(C(=O)OC(C)(C)C)C2)cc1 [Example 3.4, (R)-tert-butyl 3-(4-(2-ethyl-4-oxo-4H-pyrido[1,2-a]pyrimidin-3-yl)phenylamino)pyrrolidine-1-carboxylate]	≥ 10
CCCCc1nc2ccccn2c(=O)c1-c1ccc(N2CCOCC2)cc1 [Example 3.25, 2-butyl-3-(4-morpholin-4-ylphenyl)-4H-pyrido[1,2-a]pyrimidin-4-one]	≥ 10
CCCCc1nc2ccccn2c(=O)c1-c1ccc(NC[C@H]2CCCO2)cc1 [Example 3.27, (R)-2-butyl-3-(4-{[tetrahydrofuran-2-ylmethyl]amino}phenyl)-4H-pyrido[1,2-a]pyrimidin-4-one hydrochloride]	≥ 10
CCCCc1nc2ccccn2c(=O)c1-c1ccc(NC[C@@H]2CCCO2)cc1 [Example 3.28, (S)-2-butyl-3-(4-{[tetrahydrofuran-2-ylmethyl]amino}phenyl)-4H-pyrido[1,2-a]pyrimidin-4-one hydrochloride]	≥ 10
CCCCc1nc2cc(C(F)(F)F)ccn2c(=O)c1-c1ccc(N[C@@H]2CCNC2)cc1 [Example 6.8, (R)-2-butyl-3-{4-[pyrrolidin-3-ylamino]phenyl}-8-(trifluoromethyl)-4H-pyrido[1,2-a]pyrimidin-4-one hydrochloride]	≥ 10
CCCCc1nc2c3ccccc3ccn2c(=O)c1-c1ccc(N[C@@H]2CCNC2)cc1 [Example 6.9, (R)-2-butyl-3-{4-[pyrrolidin-3-ylamino]phenyl}-4H-pyrimido[2,1-a]isoquinolin-4-one hydrochloride]	≥ 10
CCCCc1nc2ccccn2c(=O)c1-c1ccc(N[C@@H]2CCNC2)c(F)c1 [Example 7.2, (R)-2-butyl-3-{3-fluoro-4-[(pyrrolidin-3-ylamino]phenyl}-4H-pyrido[1,2-a]pyrimidin-4-one hydrochloride]	≥ 10

More lines, now with the values ahead:

IC50 [µM]	Compound
≥ 10	CCCCc1nc2ccccn2c(=O)c1-c1ccc(NC2CCOCC2)cc1 [Example 3.26, 2-butyl-3-[4-(tetrahydro-2H-pyran-4-ylamino)phenyl]-4H-pyrido[1,2-a]pyrimidin-4-one hydrochloride]
≥ 10	CCCCc1nc2ccccn2c(=O)c1-c1ccc(N[C@@H]2CCOC2)cc1 [Example 3.29, (R)-2-butyl-3-{4-[tetrahydrofuran-3-ylamino]phenyl}-4H-pyrido[1,2-a]pyrimidin-4-one hydrochloride]
≥ 10	CCCCc1nc2ccccn2c(=O)c1-c1ccc(NC2CCCNC2)cc1 (stereo not shown) [Example 6, 2-butyl-3-[4-(piperidin-3-ylamino)phenyl]-4H-pyrido[1,2-a]pyrimidin-4-one hydrochloride]
≥ 10	CCCCc1nc2ccccn2c(=O)c1-c1ccc(NC2CCNCC2)cc1 [Example 6.1, 2-butyl-3-[4-(piperidin-4-ylamino)phenyl]-4H-pyrido[1,2-a]pyrimidin-4-one hydrochloride]
≥ 10	CCCCc1nc2ccccn2c(=O)c1-c1ccc(N[C@@H]2CCCNC2)cc1 [Example 6.2, (R)-2-butyl-3-{4-[piperidin-3-ylamino]phenyl}-4H-pyrido[1,2-a]pyrimidin-4-one hydrochloride]
≥ 10	Cc1nc2ccccn2c(=O)c1-c1ccc(N[C@@H]2CCNC2)cc1 [Example 6.3, (R)-2-methyl-3-(4-(pyrrolidin-3-ylamino)phenyl)-4H-pyrido[1,2-a]pyrimidin-4-one hydrochloride]
≥ 10	CCc1nc2ccccn2c(=O)c1-c1ccc(N[C@@H]2CCNC2)cc1 [Example 6.4, (R)-2-ethyl-3-(4-(pyrrolidin-3-ylamino)phenyl)-4H-pyrido[1,2-a]pyrimidin-4-one hydrochloride]
≥ 10	CCCc1nc2ccccn2c(=O)c1-c1ccc(N[C@@H]2CCNC2)cc1 [Example 6.5, (R)-2-propyl-3-(4-(pyrrolidin-3-ylamino)phenyl)-4H-pyrido[1,2-α]pyrimidin-4-one hydrochloride]
≥ 10	CCCCc1nc2ccc(C)cn2c(=O)c1-c1ccc(N[C@@H]2CCNC2)cc1 [Example 6.6, (R)-2-butyl-7-methyl-3-{4-[pyrrolidin-3-ylamino]phenyl}-4H-pyrido[1,2-a]pyrimidin-4-one hydrochloride]
≥ 10	CCCCc1nc2ccc(F)cn2c(=O)c1-c1ccc(N[C@@H]2CCNC2)cc1 [Example 6.7, (R)-2-butyl-7-fluoro-3-{4-[pyrrolidin-3-ylamino]phenyl}-4H-pyrido[1,2-a]pyrimidin-4-one hydrochloride]
≥ 10	CCCCc1nc2ccccn2c(=O)c1-c1ccc(NC2CCNC2)cc1 (stereo not shown) [Example 7, 2-butyl-3-(4-(pyrrolidin-3-ylamino)phenyl)-4H-pyrido[1,2-a]pyrimidin-4-one hydrochloride]
≥ 10	CCCCc1nc2ccccn2c(=O)c1-c1ccc(N[C@H]2CCNC2)cc1 [Example 7.1, (S)-2-butyl-3-{4-[pyrrolidin-3-ylamino]phenyl}-4H-pyrido[1,2-a]pyrimidin-4-one hydrochloride]
≥ 10	CCCCc1nc2ccccn2c(=O)c1-c1ccc(N[C@@H]2CCNC2)cc1C [Example 7.3, (R)-2-butyl-3-{2-methyl-4-[pyrrolidin-3-ylamino]phenyl}-4H-pyrido[1,2-a]pyrimidin-4-one hydrochloride]

Test system: not given
Assay: not given
Details: not given

melting point [°C]	Compound
132 to 135	CCCCc1nc2ccccn2c(=O)c1-c1ccc2[nH]ccc2c1 [Example 1.30, 2-butyl-3-(1H-indol-5-yl)-4H-pyrido[1,2-a]pyrimidin-4-one]
116 to 118	CCCCc1nc2ccccn2c(=O)c1-c1ccc(NC2CCN(C(=O)OC(C)(C)C)C2)cc1 (stereo not shown) [Example 3.7, tert-butyl 3-{[4-(2-butyl-4-oxo-4H-pyrido[1,2-a]pyrimidin-3-yl)phenyl]amino}pyrrolidine-1-carboxylate]
95 to 96	CCCCc1nc2ccccn2c(=O)c1-c1ccc(N[C@H]2CCN(C(=O)OC(C)(C)C)C2)cc1 [Example 3.8, (S)-tert-butyl 3-(4-(2-butyl-4-oxo-4H-pyrido[1,2-a]pyrimidin-3-yl)phenylamino)pyrrolidine-1-carboxylate]
98 to 99	CCCCc1nc2ccccn2c(=O)c1-c1ccc(N[C@@H]2CCN(C(=O)OC(C)(C)C)C2)cc1 [Example 3.9, (R)-tert-butyl 3-(4-(2-butyl-4-oxo-4H-pyrido[1,2-a]pyrimidin-3-yl)phenylamino)pyrrolidine-1-carboxylate]
208 to 211	CC(C)Nc1nc2ccccn2c(=O)c1-c1ccc(N[C@@H]2CCN(C(=O)OC(C)(C)C)C2)cc1 [Example 3.23, (R)-tert-butyl 3-[(4-{2-[(1-methylethyl)amino]-4-oxo-4H-pyrido[1,2-a]pyrimidin-3-yl}phenyl)amino]pyrrolidine-1-carboxylate]
141 to 143	CCCCc1nc2ccccn2c(=O)c1-c1ccc(N[C@@H]2CCN(C)C2)cc1 [Example 10, (R)-2-butyl-3-(4-{[1-methylpyrrolidin-3-yl]amino}phenyl)-4H-pyrido[1,2-a]pyrimidin-4-one]
